Source: US20110230493A1, “1-OXA-8-Azaspiro [4,5] Decabe-8-Carboxamide Compounds as FAAH Inhibitors” (Pfizer Inc., priority 2008, published 2011)

Assays:
human FAAH = biological target: T1, human FAAH (Homo sapiens, UniProt O00519); experiment: FAAH assay, human FAAH enzyme inactivation (kinact/Ki); format: biochemical; conditions: oleamide 50 μM, 30° C.; for hFAAH kinact/Ki: in vitro, pH 7.4; for kinact/KI: pH 7.4, in vitro, read-out: hFAAH kinact/Ki
T1 construct: made in house; host or cells: E. coli
T1 sequence (O00519 1-579): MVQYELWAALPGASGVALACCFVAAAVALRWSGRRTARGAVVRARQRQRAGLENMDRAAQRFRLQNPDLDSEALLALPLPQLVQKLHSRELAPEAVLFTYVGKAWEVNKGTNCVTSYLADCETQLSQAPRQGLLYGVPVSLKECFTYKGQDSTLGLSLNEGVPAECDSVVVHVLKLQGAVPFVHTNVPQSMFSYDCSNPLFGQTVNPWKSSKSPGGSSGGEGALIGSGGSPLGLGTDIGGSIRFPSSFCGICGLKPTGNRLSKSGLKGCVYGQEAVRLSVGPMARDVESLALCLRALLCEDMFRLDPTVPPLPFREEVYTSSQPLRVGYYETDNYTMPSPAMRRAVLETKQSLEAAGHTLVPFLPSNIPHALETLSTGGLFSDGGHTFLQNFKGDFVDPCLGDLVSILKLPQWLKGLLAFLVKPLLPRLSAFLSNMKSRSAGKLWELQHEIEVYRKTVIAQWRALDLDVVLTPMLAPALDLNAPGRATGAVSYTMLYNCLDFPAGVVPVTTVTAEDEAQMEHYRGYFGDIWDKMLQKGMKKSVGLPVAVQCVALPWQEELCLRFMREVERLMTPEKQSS
Procedure: (§1) The FAAH assay was carried out in 384-well clear polystyrene plates (Evergreen Scientific) in a total volume of 50 μl per well in a manner similar to that described by Mileni et al., Proc. Nat. Acad. Sci. 2008, 105, 12820-12824. All percents are by volume. Serial dilutions of compound were initially prepared in 100% DMSO, and then diluted two-fold into HPLC-grade H2O to give 50% DMSO. To each well, was placed the reaction mixture (40 μl) containing 1-4 nM FAAH, 50 mM NaPi, pH 7.4, 3 mM α-ketoglutarate, 0.15 mM NADH, 7.5 U/ml glutamate dehydrogenase, 2 mM ADP, 1 mM EDTA, and 0.1% Triton X-100 (The concentration shown for each component is the final concentration in the assay). To this mixture, was added 5 μl of a compound of Examples 1 to 101 at various concentrations in 50% DMSO (or 5 μl 50% DMSO for controls). This was immediately followed by the addition of 5 μl oleamide (500 μM) dissolved in 75% EtOH/25% DMSO and the reaction mixture was mixed for 1.5 min. The final concentrations of DMSO and EtOH in the assay were each 7.5%. The reactions were incubated at 30° C. and the absorbance at 340 nm was collected over a period of 90 min with readings taken in 30-second intervals using SpectraMax Plus^384 Microplate Spectrophotometer (Molecular Devices, Sunnyvale, Calif.). The human FAAH and rat FAAH used in the assay was prepared as described in the patent application WO 2006/067613 using wild-type E. coli cells transformed in St. Louis, Mo., U.S.A. The purity of the enzyme was greater than 98% based on an analysis by SDS-polyacrylamide gel electrophoresis followed by Coomassie Blue staining.
(§2) Reaction progress curves were corrected for the non-enzymatic oxidation of NADH by subtraction of absorbancies at each time point obtained from control reactions containing no FAAH enzyme. The loss of enzyme activity as a function of time is well-described by the following mathematical equation (1) for a mono-exponential decay: […]
(§3) where At represents the absorbance at time t, A0 represents the absorbance at time zero, and C represents a constant. Observed rates of enzyme inactivation (kobs) were determined from the non-linear reaction progress curves by fitting the corrected absorbancies to an equation for a mono-exponential decay using the third-party Microsoft Excel plug-in, XLfit (IDBS Limited). Secondary plots of kobs vs. inhibitor concentration were prepared from kobs values obtained from progress curves. Second-order rates for enzyme inactivation, expressed as kinact/Ki (M^−1 s^−1), were calculated from the slopes from linear regression analysis of the secondary plot of kobs vs. inhibitor concentration as defined in following equation (2), where [I]<<Ki:
(§4) The concentration of substrate in the assay was equal to the Km for oleamide of 50 μM. Therefore, reported kinact/Ki values are obtained by multiplying resulting slopes by a factor of two (i.e. slope=kinact/(Ki*2)).
(§5) Table 1, below, lists human FAAH (hFAAH) and rat FAAH (rFAAH) enzyme inhibition values for Examples 1-101 as a ratio of kinact/Ki (M^−1 s^−1).

Male Sprague-Dawley Rats = experiment: In vivo Complete Freund's Adjuvant (CFA) efficacy assay, inhibition of allodynia; parameters: species or system rat; key: (+) indicates the test compound was determined to be efficacious at 3 mpk, oral dosing; (−) indicates the test compound was determined to not be efficacious at 3 mpk, oral dosing; conditions: 3 mpk, oral dosing; PWT four hours postdose; p < 0.05 vs vehicle group
Procedure: For additional information on the CFA efficacy assay, see Jayamanne et al., Brit. J. Pharmacol. 2006, 147, 281-288. Experiments were performed on adult Male Sprague-Dawley Rats (200 g-250 g). Inflammation was induced in the left hindpaw of the rat by an intra-plantar injection of 150 uL Complete Freund's Adjuvant (CFA) (SIGMA F5881). The CFA injection immediately induces local inflammation, paw swelling, and pain that persists for at least two weeks post-injection. Baseline paw withdrawal threshold (PWT) was measured to determine the percent inhibition of allodynia using a set of Von Frey Hairs on day 4 post injection as illustrated by the Dixon Up and Down Method (W. J. Dixon, Ann. Rev. Pharmacol. Toxicol. 1980, 20:441-462). […] Following Dose administration PWT threshold was evaluated again at four hours postdose. The Sprague-Dawley rats used in this assay were purchased from Harlan, 8520 Allison Pointe Blvd., Indianapolis, Ind., 46250, U.S.A. Sprague-Dawley rats are an outbred breed of albino rats first produced by the Sprague Dawley farms in Madison, Wis., U.S.A.
Percent Inhibition of Allodynia was determined by the formula: […]
ΔPWT measurements were averaged for each treatment group and statistical comparisons between groups were made using ANOVA and Dunnett's two-tailed test. […]

rat FAAH = biological target: T2, rat FAAH (Rattus norvegicus, UniProt P97612); experiment: FAAH assay, rat FAAH enzyme inactivation (kinact/Ki); format: biochemical; conditions: oleamide 50 μM, 30° C.; for rFAAH kinact/Ki: in vitro, pH 7.4; for kinact/KI: pH 7.4, in vitro, read-out: rFAAH kinact/Ki
T2 construct: made in house; host or cells: E. coli
T2 sequence (P97612 1-579): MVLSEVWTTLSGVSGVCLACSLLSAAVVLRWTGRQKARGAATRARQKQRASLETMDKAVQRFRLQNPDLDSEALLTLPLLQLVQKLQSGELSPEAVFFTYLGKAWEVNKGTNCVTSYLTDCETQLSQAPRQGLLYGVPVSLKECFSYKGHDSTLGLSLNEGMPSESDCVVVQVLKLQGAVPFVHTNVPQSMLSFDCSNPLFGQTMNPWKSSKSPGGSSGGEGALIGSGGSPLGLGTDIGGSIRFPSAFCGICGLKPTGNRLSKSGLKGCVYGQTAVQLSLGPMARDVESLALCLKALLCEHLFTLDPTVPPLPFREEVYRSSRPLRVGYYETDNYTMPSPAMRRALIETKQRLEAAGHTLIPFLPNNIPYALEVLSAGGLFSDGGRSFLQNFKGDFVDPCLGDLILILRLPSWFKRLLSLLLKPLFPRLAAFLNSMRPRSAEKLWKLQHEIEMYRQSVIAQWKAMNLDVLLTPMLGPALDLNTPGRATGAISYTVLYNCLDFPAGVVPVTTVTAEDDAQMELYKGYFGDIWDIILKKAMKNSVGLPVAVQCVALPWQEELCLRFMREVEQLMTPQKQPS
Procedure: as §1, §2, §3, §4, §5

Q: For Cc1noc(NC(=O)N2CCC3(CC2)CC(c2cccc(OC(F)(F)F)c2)CO3)c1C (single isomer, unassigned) [Example 34, N-(3,4-dimethylisoxazol-5-yl)-3-[3-(trifluoromethoxy)phenyl]-1-oxa-8-azaspiro[4.5]decane-8-carboxamide], which “hFAAH kinact/Ki” value (human FAAH) is on record?
A: 1840 M⁻¹ s⁻¹

Q: What about the “CFA Efficacy” value (Male Sprague-Dawley Rats) of the same compound?
A: (+)

Q: And the “rFAAH kinact/Ki” value (rat FAAH)?
A: 2610 M⁻¹ s⁻¹

Q: What does the source list for Cn1nnnc1NC(=O)N1CCC2(CC1)C[C@@H](c1ccc(OCc3ccc(F)c(F)c3)cc1)CO2 [Example 89, (3S)-3-{4-[(3,4-difluorobenzyl)oxy]phenyl}-N-(1-methyl-1H-tetrazol-5-yl)-1-oxa-8-azaspiro[4.5]decane-8-carboxamide]?
A: kinact/KI (human FAAH): 29800 M⁻¹ s⁻¹; CFA Efficacy (Male Sprague-Dawley Rats): (+); kinact/KI (rat FAAH): 9640 M⁻¹ s⁻¹

Q: Which kinact/KI (human FAAH) does the source give for Cn1nnnc1NC(=O)N1CCC2(CC1)C[C@H](c1cccc(-c3ccc(C(F)(F)F)cn3)c1)CO2 [Example 99, (3R)—N-(1-methyl-1H-tetrazol-5-yl)-3-{3-[5-(trifluoromethyl)pyridin-2-yl]phenyl}-1-oxa-8-azaspiro[4.5]decane-8-carboxamide] here?
A: 9970 M⁻¹ s⁻¹

Q: What about the “CFA Efficacy” value (Male Sprague-Dawley Rats) of the same compound?
A: (+)

Q: And the kinact/KI (rat FAAH)?
A: 2690 M⁻¹ s⁻¹

Q: With Cn1nnnc1NC(=O)N1CCC2(CC1)CC(c1cccc(C(F)(F)F)c1)CO2 (single isomer, unassigned) [Example 93, N-(1-methyl-1H-tetrazol-5-yl)-3-[3-(trifluoromethyl)phenyl]-1-oxa-8-azaspiro[4.5]decane-8-carboxamide] as the compound, how does the kinact/KI (human FAAH) read?
A: 4600 M⁻¹ s⁻¹

Q: And the “CFA Efficacy” value (Male Sprague-Dawley Rats)?
A: (+)

Q: And the kinact/KI (rat FAAH)?
A: 2160 M⁻¹ s⁻¹

Q: With Cn1nnnc1NC(=O)N1CCC2(CC1)CC(c1cccc(Cl)c1)CO2 (single isomer, unassigned) [Example 79, 3-(3-chlorophenyl)-N-(1-methyl-1H-tetrazol-5-yl)-1-oxa-8-azaspiro[4.5]decane-8-carboxamide] as the compound, how does the “hFAAH kinact/Ki” value (human FAAH) read?
A: 5600 M⁻¹ s⁻¹

Q: What about the “CFA Efficacy” value (Male Sprague-Dawley Rats) of the same compound?
A: (+)

Q: And the “rFAAH kinact/Ki” value (rat FAAH)?
A: 1970 M⁻¹ s⁻¹

Q: What does the source list for Cc1noc(NC(=O)N2CCC3(CC2)CC(c2cccc(Cl)c2)CO3)c1C (single isomer, unassigned) [Example 35, 3-(3-chlorophenol)-N-(3,4-dimethylisoxazol-5-yl)-1-oxa-8-azaspiro[4.5]decane-8-carboxamide]?
A: kinact/KI (human FAAH): 2390 M⁻¹ s⁻¹; CFA Efficacy (Male Sprague-Dawley Rats): (+); rFAAH kinact/Ki (rat FAAH): 1560 M⁻¹ s⁻¹

Q: How did the kinact/KI (human FAAH) turn out when O=C(Nc1cccnn1)N1CCC2(CC1)CC(c1cccc(Oc3ccc(Br)cn3)c1)CO2 (racemic) [Example 5, (3RS)-3-{3-[(5-bromopyridin-2-yl)oxy]phenyl}-N-pyridazin-3-yl-1-oxa-8-azaspiro[4.5]decane-8-carboxamide] was run?
A: 2660 M⁻¹ s⁻¹

Q: What about the kinact/KI (rat FAAH) of the same compound?
A: 3620 M⁻¹ s⁻¹

Q: How did the kinact/KI (human FAAH) turn out when CCCc1noc(NC(=O)N2CCC3(CC2)CC(c2ccc(Cl)c(Cl)c2)CO3)c1C (single isomer, unassigned) [Example 69, 3-(3,4-dichlorophenyl)-N-(3-n-propyl-4-methylisoxazol-5-yl)-1-oxa-8-azaspiro[4.5]decane-8-carboxamide] was run?
A: 960 M⁻¹ s⁻¹

Q: And the kinact/KI (rat FAAH)?
A: 4880 M⁻¹ s⁻¹

Q: With Cc1noc(NC(=O)N2CCC3(CC2)CC(c2ccc(Cl)cc2F)CO3)c1C (racemic) [Example 27, (3RS)-3-(4-chloro-2-fluorophenyl)-N-(3,4-dimethylisoxazol-5-yl)-1-oxa-8-azaspiro[4.5]decane-8-carboxamide] as the compound, how does the kinact/KI (human FAAH) read?
A: 2090 M⁻¹ s⁻¹

Q: What about the kinact/KI (rat FAAH) of the same compound?
A: 1140 M⁻¹ s⁻¹

Q: What does the source list for Cc1noc(NC(=O)N2CCC3(CC2)CC(c2cc(F)cc(Cl)c2)CO3)c1C (racemic) [Example 16, (3RS)-3-(3-chloro-5-fluorophenyl)-N-(3,4-dimethylisoxazol-5-yl)-1-oxa-8-azaspiro[4.5]decane-8-carboxamide]?
A: kinact/KI (human FAAH): 1990 M⁻¹ s⁻¹; kinact/KI (rat FAAH): 3590 M⁻¹ s⁻¹

Q: With Cc1nnc(NC(=O)N2CCC3(CC2)CC(c2cccc(OC(F)(F)F)c2)CO3)o1 (single isomer, unassigned) [Example 70, N-(5-methyl-1,3,4-oxadiazol-2-yl)-3-[3-(trifluoromethoxy)phenyl]-1-oxa-8-azaspiro[4.5]decane-8-carboxamide] as the compound, how does the kinact/KI (human FAAH) read?
A: 2110 M⁻¹ s⁻¹

Q: And the kinact/KI (rat FAAH)?
A: 2390 M⁻¹ s⁻¹

Q: With Cc1noc(NC(=O)N2CCC3(CC2)CC(c2ccc(OCc4ccc(C(F)(F)F)cn4)cc2)CO3)c1C (racemic) [Example 32, (3RS)-N-(3,4-dimethylisoxazol-5-yl)-3-(4-{[5-(trifluoromethyl)pyridin-2-yl]methoxy}phenyl)-1-oxa-8-azaspiro[4.5]decane-8-carboxamide] as the compound, how does the kinact/KI (human FAAH) read?
A: 4120 M⁻¹ s⁻¹

Q: And the kinact/KI (rat FAAH)?
A: 7580 M⁻¹ s⁻¹

Q: Which kinact/KI (human FAAH) does the source give for Cc1noc(NC(=O)N2CCC3(CC2)CC(c2ccc(OCc4ccc(F)c(F)c4)cc2)CO3)c1C (racemic) [Example 30, (3RS)-3-{4-[(3,4-difluorobenzyl)oxy]phenyl}-N-(3,4-dimethylisoxazol-5-yl)-1-oxa-8-azaspiro[4.5]decane-8-carboxamide] here?
A: 7380 M⁻¹ s⁻¹

Q: What about the kinact/KI (rat FAAH) of the same compound?
A: 5800 M⁻¹ s⁻¹
